According to US8889878B2, “Haloalky-substituted amides as insecticides and acaricides” (Bayer CropScience AG, priority 2009, dated 2014):

Assay: logP by HPLC on reverse-phase column (EEC Directive 79/831 Annex V.A8)
Assay type: physicochemical
Conditions: HPLC, C18 reverse phase, 43° C., acidic range pH 2.7, calibration with alkan-2-ones
Method: The logP values reported in the above Tables and Preparation Examples were determined according to EEC Directive 79/831 Annex V.A8 by HPLC (High Performance Liquid Chromatography) on a reverse-phase column (C18). Temperature 43° C.

Compound | logP
O=C(/C=C/c1ccc(C(=O)NCc2ccccc2)c(C(F)(F)F)c1)NC(c1ccncc1)C(F)(F)F (stereo not drawn) [Ib-1] | HPLC-MS: logP = 3.02 mass (m/z):
N#Cc1ccc2cc(C(=O)NC(c3cccc(C(F)(F)F)c3)C(F)(F)F)oc2c1 (stereo not drawn) [Ic-3] | HPLC-MS: logP = 3.72; mass
N#Cc1ccc2oc(C(=O)NC(c3ccc(Cl)c(Cl)c3)C(F)(F)F)cc2c1 (stereo not drawn) [Ic-5] | HPLC-MS: logP = 3.95; mass
NC(=O)c1ccc2oc(C(=O)NC(c3cccc(C(F)(F)F)c3)C(F)(F)F)cc2c1 (stereo not drawn) [Ic-6] | HPLC-MS: logP = 2.69; mass
N#Cc1ccc2oc(C(=O)NC(c3ccc(Cl)cc3Cl)C(F)(F)F)cc2c1 (stereo not drawn) [Ic-7] | HPLC-MS: logP = 4.04; mass
N#Cc1ccc2cc(C(=O)NC(c3cccc(C(F)(F)F)c3)C(F)(F)F)[nH]c2c1 (stereo not drawn) [Ic-8] | HPLC-MS: logP = 3.51; mass
CS(=O)(=O)c1ccc2[nH]c(C(=O)NC(c3cccc(C(F)(F)F)c3)C(F)(F)F)cc2c1 (stereo not drawn) [Ic-9] | HPLC-MS: logP = 2.92; mass
C=CCC(=O)NCc1ccc2oc(C(=O)NC(c3cccc(C(F)(F)F)c3)C(F)(F)F)cc2c1 (stereo not drawn) [Ic-13] | HPLC-MS: logP = 3.24; mass
CCC(=O)NCc1ccc2oc(C(=O)NC(c3cccc(C(F)(F)F)c3)C(F)(F)F)cc2c1 (stereo not drawn) [Ic-14] | HPLC-MS: logP = 3.09; mass
NC(=O)c1cc2cc(C(=O)NC(c3cccc(C(F)(F)F)c3)C(F)(F)F)oc2cc1F (stereo not drawn) [Ic-16] | HPLC-MS: logP = 2.88; mass
O=C(NC(c1cccc(C(F)(F)F)c1)C(F)(F)F)c1cc2cc(S(=O)(=O)C(F)(F)F)ccc2[nH]1 (stereo not drawn) [Ic-17] | HPLC-MS: logP = 4.19; mass
Cn1c(C(=O)NC(c2cccc(C(F)(F)F)c2)C(F)(F)F)cc2cc(Cl)c(C(=O)NC3CC3)cc21 (stereo not drawn) [Ic-48] | HPLC-MS: logP = 3.33; mass
O=C(/C=C/c1ccc(C(=O)NC2CC2)c(C(F)(F)F)c1)NC(c1cccc(F)c1)C(F)F (stereo not drawn) [Id-2] | HPLC-MS: logP = 2.68; mass
O=C(/C=C/c1ccc(C(=O)NC2CC2)c(C(F)(F)F)c1)NC(c1cccc(Cl)c1)C(F)F (stereo not drawn) [Id-3] | HPLC-MS: logP = 2.92; mass

Same assay, conditions: HPLC-MS; HPLC on reverse-phase column

Compound | logP
O=C(/C=C/c1ccc(C(=O)NC2CC2)c(C(F)(F)F)c1)NC(c1cc(Cl)c(Cl)c(Cl)c1)C(F)(F)F (stereo not drawn) [Ia-283] | HPLC-MS: logP = 4.1; mass

Same assay, conditions: reverse-phase C18 HPLC column, pH 2.7, HPLC, C18 reverse phase, 43° C., acidic range pH 2.7, calibration with alkan-2-ones

Compound | chromatographic logP
O=C(NCc1ccccc1)c1ccc(Br)cc1C(F)(F)F [N-Benzyl-4-bromo-2-(trifluoromethyl)benzamide] | 2.89
O=C(NC1CC1)c1cnc(I)cc1C(F)(F)F [N-Cyclopropyl-6-iodo-4-(trifluoromethyl)nicotinamide] | 1.92
CCC(=O)NC(C)c1ccc(Br)cc1F (stereo not drawn) [N-[1-(4-Bromo-2-fluorophenyl)ethyl]propanamide] | 2.19
FC(F)(F)c1cc(Br)ccc1CNc1ccccn1 [N-[4-Bromo-2-(trifluoromethyl)benzyl]pyridin-2-amine] | 1.57
C=CC(=O)NC(c1cccc(C(F)(F)F)c1)C(F)(F)F (stereo not drawn) [N-{2,2,2-Trifluoro-1-[3-(trifluoromethyl)phenyl]ethyl}acrylamide] | 2.75
CC(C)(C)OC(=O)c1ccc(C=O)c(O)c1 [tert-Butyl 4-formyl-3-hydroxybenzoate] | 3.11
CC(C)(C)OC(=O)NCc1ccc(Br)cc1C(F)(F)F [tert-Butyl [4-bromo-2-(trifluoromethyl)benzyl]carbamate] | 4.13
CC(C)(C)OC(=O)NC1CCc2cc(/C=C/C(=O)NC(c3cccc(C(F)(F)F)c3)C(F)(F)F)ccc21 (stereo not drawn) [tert-Butyl {5-[(1E)-3-oxo-3-({2,2,2-trifluoro-1-[3-(trifluoromethyl)phenyl]ethyl}amino)prop-1-en-1-yl]-2,3-dihydro-1H-inden-1-yl}carbamate] | 4.44

Same assay, conditions: reverse-phase C18 HPLC column; HPLC, C18 reverse phase, 43° C., acidic range pH 2.7, calibration with alkan-2-ones

Compound | chromatographic logP
CC(C)(C)OC(=O)NCc1ccc(/C=C/C(=O)NC(c2cccc(C(F)(F)F)c2)C(F)(F)F)cc1C(F)(F)F (stereo not drawn) [tert-Butyl {4-[1E)-3-oxo-3-({2,2,2-trifluoro-1-[3-(trifluoromethyl)phenyl]ethyl}amino)prop-1-en-1-yl]-2-(trifluoromethyl)benzyl}carbamate] | 4.4
